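How tested: cells in 96-well plates exposed to compound for 48 hours at five concentrations. The concentration for 50% growth inhibition is given as GI50. At the TGI there is no net growth.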

Some test systems named below: CCRF-CEM leukemia; MALME-3M melanoma; OVCAR-3 ovarian; RPMI-8226 leukemia; SF-295 CNS; SK-MEL-2 melanoma; SK-MEL-28 melanoma; SK-OV-3 ovarian; SNB-19 CNS; UACC-62 melanoma.
Common to all, as to assay: growth of human tumour cells (NCI), 48 h

In the case of `COc1cc2c(cc1OCCCN1CCN(CCCOc3cc4c(cc3OC)C(=O)N3C[C@H](F)C[C@H]3C=N4)CC1)N=C[C@@H]1C[C@@H](F)CN1C2=O`, the GI50 in the assay on CCRF-CEM leukemia was less than 0.01 µM; in the assay with MALME-3M melanoma, 0.0334 µM; in the assay with OVCAR-3 ovarian, 0.119 µM; with RPMI-8226 leukemia, 0.0226 µM; with SF-295 CNS, 0.0457 µM; with SK-MEL-2 melanoma, 0.394 µM. In addition, the GI50 was 0.0713 µM with SK-MEL-28 melanoma, 0.07 µM in the assay with SK-OV-3 ovarian, 0.758 µM with SNB-19 CNS and 0.0223 µM with UACC-62 melanoma. Also, the TGI in the assay on CCRF-CEM leukemia is 1.49 µM; in the assay on MALME-3M melanoma it was 0.154 µM; in the assay on OVCAR-3 ovarian, 2.91 µM; in the assay on RPMI-8226 leukemia, 1.04 µM; in the assay on SF-295 CNS, greater than 100 µM; in the assay on SK-MEL-2 melanoma, 3.29 µM. Moreover, the TGI is 0.343 µM in the assay on SK-MEL-28 melanoma, greater than 100 µM in the assay with SK-OV-3 ovarian, greater than 41.6 µM in the assay on SNB-19 CNS and 0.145 µM with UACC-62 melanoma.

As for `COc1cc(/C=C/C(=O)c2cccc(-n3cc(-c4ccccc4)[nH]c3=O)c2)ccc1O`, the GI50 in the assay with CCRF-CEM leukemia was 1.76 µM; with MALME-3M melanoma it was 5.25 µM; with OVCAR-3 ovarian it was 2.33 µM; in the assay with RPMI-8226 leukemia, 1.66 µM; in the assay on SF-295 CNS, 6.75 µM; in the assay on SK-MEL-2 melanoma it was 3.81 µM. The GI50 in the assay with SK-MEL-28 melanoma is 0.722 µM; with SK-OV-3 ovarian it was 4.02 µM; with SNB-19 CNS, 3.07 µM; in the assay on UACC-62 melanoma, 2.33 µM. Further, the TGI turned out to be 5.33 µM in the assay with CCRF-CEM leukemia; 17.1 µM in the assay with MALME-3M melanoma; 6.06 µM in the assay on OVCAR-3 ovarian; 4.21 µM in the assay on RPMI-8226 leukemia; 21 µM with SF-295 CNS; 15.1 µM with SK-MEL-2 melanoma. In addition, the TGI in the assay on SK-MEL-28 melanoma stood at 3.07 µM; in the assay on SK-OV-3 ovarian, 35.5 µM; in the assay with SNB-19 CNS, 11 µM; with UACC-62 melanoma, 7.74 µM.

In the case of `NC(=O)c1c(NC(=O)c2ccc(C(F)(F)F)cc2Cl)sc2c1CCC(=O)C2`, the GI50 in the assay on CCRF-CEM leukemia was 0.146 µM; in the assay on MALME-3M melanoma, 0.292 µM; with OVCAR-3 ovarian it was 0.369 µM; with SF-295 CNS it was 1.05 µM; in the assay with SK-MEL-2 melanoma, 1.87 µM; in the assay with SK-MEL-28 melanoma it was 0.531 µM. In addition, the GI50 with SK-OV-3 ovarian is 2.47 µM; with SNB-19 CNS, 0.375 µM; with UACC-62 melanoma it was 0.274 µM. For the same molecule, the TGI with CCRF-CEM leukemia was greater than 100 µM; with MALME-3M melanoma, 1.39 µM; in the assay on OVCAR-3 ovarian, 1.33 µM; in the assay with SF-295 CNS, 4.5 µM; with SK-MEL-2 melanoma, 5.37 µM; in the assay with SK-MEL-28 melanoma, 2.04 µM. In addition, the TGI is 7.56 µM with SK-OV-3 ovarian, 3.96 µM in the assay with SNB-19 CNS and 1.21 µM in the assay on UACC-62 melanoma.

As for `CC1Nc2ccccc2NC1C=C(C#N)C#N` (stereo unspecified), the TGI in the assay on CCRF-CEM leukemia turned out to be 7.97 µM; in the assay with MALME-3M melanoma, 32.3 µM; with OVCAR-3 ovarian, 29.4 µM; in the assay on RPMI-8226 leukemia, 29.2 µM; in the assay with SF-295 CNS, 28.9 µM; in the assay with SK-MEL-2 melanoma, 37.7 µM. Besides, the TGI in the assay with SK-MEL-28 melanoma was determined as 31 µM; in the assay with SK-OV-3 ovarian, 52.6 µM; in the assay with SNB-19 CNS it was 36.3 µM; in the assay with UACC-62 melanoma, 32.6 µM.

Consider `O=NN(CC(=O)NNc1ccccc1)CC(=O)NNc1ccccc1`, for which the GI50 is 5 µM in the assay with CCRF-CEM leukemia; 42 µM in the assay with MALME-3M melanoma; 11.3 µM in the assay on OVCAR-3 ovarian; 12.4 µM in the assay with RPMI-8226 leukemia; 2.34 µM in the assay with SF-295 CNS; greater than 100 µM in the assay on SK-MEL-2 melanoma. The GI50 in the assay with SK-OV-3 ovarian is greater than 100 µM; with SNB-19 CNS, greater than 100 µM; in the assay on UACC-62 melanoma, 0.479 µM. For the same molecule, the TGI in the assay on CCRF-CEM leukemia was greater than 100 µM; with MALME-3M melanoma it was greater than 100 µM; with OVCAR-3 ovarian, greater than 100 µM; with RPMI-8226 leukemia it was greater than 100 µM; with SF-295 CNS, 7.81 µM; with SK-MEL-2 melanoma it was greater than 100 µM. For the same molecule, the TGI in the assay with SK-MEL-28 melanoma was greater than 100 µM; in the assay with SK-OV-3 ovarian, greater than 100 µM; in the assay with SNB-19 CNS, greater than 100 µM; in the assay on UACC-62 melanoma it was 7.9 µM.

In the case of `N#C/C(=C\c1ccccn1)c1nc2ccccc2o1`, the GI50 with CCRF-CEM leukemia is 1.4 µM; with MALME-3M melanoma, 25.2 µM; with OVCAR-3 ovarian it was 29.7 µM; in the assay with RPMI-8226 leukemia, 18.5 µM; in the assay with SF-295 CNS, 84.2 µM; with SK-MEL-2 melanoma, 29.1 µM. In addition, the GI50 with SK-MEL-28 melanoma was 20.7 µM; in the assay on SK-OV-3 ovarian it was 45.9 µM; in the assay on SNB-19 CNS, 17 µM; with UACC-62 melanoma, 21.3 µM. The TGI with CCRF-CEM leukemia is 69.6 µM; in the assay with MALME-3M melanoma, greater than 100 µM; in the assay with OVCAR-3 ovarian, greater than 100 µM; in the assay with RPMI-8226 leukemia, 52.4 µM; in the assay on SF-295 CNS, greater than 100 µM; in the assay with SK-MEL-2 melanoma it was greater than 100 µM. Besides, the TGI in the assay on SK-MEL-28 melanoma is 45 µM; in the assay with SK-OV-3 ovarian, greater than 100 µM; in the assay on SNB-19 CNS, 40 µM; with UACC-62 melanoma, 46.2 µM.

Consider `CN1C=C(C(N)=O)Cc2ccsc21`, for which the TGI in the assay on CCRF-CEM leukemia, in the assay with MALME-3M melanoma, in the assay on OVCAR-3 ovarian, with RPMI-8226 leukemia, with SF-295 CNS and with SK-MEL-2 melanoma was greater than 100 µM throughout. The TGI in the assay on SK-MEL-28 melanoma, in the assay on SK-OV-3 ovarian, with SNB-19 CNS and in the assay with UACC-62 melanoma was greater than 100 µM in each case.

Consider `CC[C@@]1(O)C(=O)OCc2c1cc1n(c2=O)Cc2cc3c(N)c(OC)ccc3nc2-1`, for which the GI50 was less than 0.01 µM with CCRF-CEM leukemia; 0.236 µM with MALME-3M melanoma; 0.328 µM in the assay on OVCAR-3 ovarian; 0.135 µM in the assay with RPMI-8226 leukemia; 0.0267 µM in the assay on SF-295 CNS; 0.439 µM with SK-MEL-2 melanoma. The GI50 was 0.466 µM in the assay with SK-MEL-28 melanoma, 0.0582 µM in the assay with SK-OV-3 ovarian, less than 0.0238 µM with SNB-19 CNS and less than 0.01 µM in the assay with UACC-62 melanoma. The TGI worked out at 0.0409 µM in the assay with CCRF-CEM leukemia; 4.05 µM in the assay with MALME-3M melanoma; 1.65 µM in the assay with OVCAR-3 ovarian; 2.32 µM in the assay with RPMI-8226 leukemia; 0.41 µM with SF-295 CNS; 1.47 µM in the assay on SK-MEL-2 melanoma. The results for the TGI with SK-OV-3 ovarian, in the assay with SNB-19 CNS and in the assay on UACC-62 melanoma were 2.29 µM, greater than 61.9 µM and 0.0285 µM, respectively.

For the molecule `O=C1C[C@@H]2[C@@H](C=CC23CCCC3)N1O`, the TGI in the assay with CCRF-CEM leukemia, with MALME-3M melanoma, in the assay with OVCAR-3 ovarian, in the assay with RPMI-8226 leukemia, in the assay on SF-295 CNS and in the assay with SK-MEL-2 melanoma was greater than 100 µM in each case. Further, the TGI with SK-MEL-28 melanoma, in the assay with SK-OV-3 ovarian, with SNB-19 CNS and with UACC-62 melanoma was greater than 100 µM each time.

The record behind these values is PubChem BioAssay (NCI).
